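These data come from cells grown in 96-well plates and exposed to compound for 48 hours at five concentrations. TGI is the concentration that stops growth completely.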
Experiments:
Test in all cases: NCI-60 cell line screen, 48 h
HCT-116 colon = system: HCT-116 colon
HOP-62 NSCLC = system: HOP-62 NSCLC
U251 CNS = system: U251 CNS
SK-MEL-2 melanoma = system: SK-MEL-2 melanoma
UACC-62 melanoma = system: UACC-62 melanoma
RPMI-8226 leukemia = system: RPMI-8226 leukemia
TK-10 renal = system: TK-10 renal
M14 melanoma = system: M14 melanoma
NCI-H23 lung = system: NCI-H23 lung
CCRF-CEM leukemia = system: CCRF-CEM leukemia
OVCAR-4 ovarian = system: OVCAR-4 ovarian
COLO 205 colon = system: COLO 205 colon
A498 renal = system: A498 renal
T-47D breast = system: T-47D breast
MDA-MB-435 = system: MDA-MB-435
PC-3 prostate = system: PC-3 prostate
CAKI-1 renal = system: CAKI-1 renal

CCN(CC)C(=O)Cc1c(C(=O)N(CC)CC)c(=O)nc2sccn12
TGI (HCT-116 colon): > 100 µM
TGI (HOP-62 NSCLC): > 100 µM
TGI (U251 CNS): > 100 µM
TGI (SK-MEL-2 melanoma): > 100 µM
TGI (UACC-62 melanoma): > 100 µM
TGI (RPMI-8226 leukemia): > 100 µM
TGI (TK-10 renal): > 100 µM
TGI (M14 melanoma): > 100 µM
TGI (NCI-H23 lung): > 100 µM
TGI (CCRF-CEM leukemia): > 100 µM
TGI (OVCAR-4 ovarian): > 100 µM
TGI (COLO 205 colon): > 100 µM
TGI (A498 renal): > 100 µM

CC#CC(O)(C(=O)OCCCN(C)C)C1CCCCC1 (stereo unspecified)
TGI (HCT-116 colon): > 100 µM
TGI (HOP-62 NSCLC): > 100 µM
TGI (U251 CNS): > 100 µM
TGI (T-47D breast): > 100 µM
TGI (MDA-MB-435): > 100 µM
TGI (SK-MEL-2 melanoma): > 100 µM
TGI (UACC-62 melanoma): > 100 µM
TGI (RPMI-8226 leukemia): > 100 µM
TGI (TK-10 renal): > 100 µM
TGI (PC-3 prostate): > 100 µM
TGI (M14 melanoma): > 100 µM
TGI (NCI-H23 lung): > 100 µM
TGI (CCRF-CEM leukemia): > 100 µM
TGI (COLO 205 colon): > 100 µM
TGI (A498 renal): > 100 µM

CCOc1cc(C2SCC(=O)N2c2ccc(Oc3ccc(Cl)cc3)c(Cl)c2)ccc1O (stereo unspecified)
TGI (HCT-116 colon): 25.1 µM
TGI (CAKI-1 renal): 32.6 µM
TGI (HOP-62 NSCLC): 40.8 µM
TGI (U251 CNS): 35.7 µM
TGI (T-47D breast): 40.4 µM
TGI (MDA-MB-435): 42 µM
TGI (SK-MEL-2 melanoma): 32.7 µM
TGI (UACC-62 melanoma): 30.3 µM
TGI (RPMI-8226 leukemia): 80.1 µM
TGI (TK-10 renal): 34.2 µM
TGI (PC-3 prostate): 33.4 µM
TGI (M14 melanoma): 56.1 µM
TGI (NCI-H23 lung): 32.3 µM
TGI (CCRF-CEM leukemia): 49.5 µM
TGI (OVCAR-4 ovarian): 31.1 µM
TGI (COLO 205 colon): 41.3 µM

CC(C)=CCC[C@]1(C)C=Cc2c(O)c3c(c(CC=C(C)C)c2O1)O[C@]12C(=C[C@@H]4CC1C(C)(C)O[C@@]2(C/C=C(/C)C(=O)O)C4=O)C3=O
TGI (HCT-116 colon): 1.5 µM
TGI (CAKI-1 renal): 3.66 µM
TGI (HOP-62 NSCLC): 3.11 µM
TGI (U251 CNS): 3.31 µM
TGI (MDA-MB-435): 3.72 µM
TGI (SK-MEL-2 melanoma): 4.13 µM
TGI (UACC-62 melanoma): 4.57 µM
TGI (RPMI-8226 leukemia): 1.61 µM
TGI (TK-10 renal): 2.47 µM
TGI (PC-3 prostate): 2.23 µM
TGI (M14 melanoma): 3.19 µM
TGI (NCI-H23 lung): 3.24 µM
TGI (CCRF-CEM leukemia): 1.45 µM
TGI (OVCAR-4 ovarian): 13.6 µM
TGI (A498 renal): 3.98 µM

Cc1c(N2C(=O)/C(=C/c3ccc(Cl)cc3)N=C2c2ccccc2)c(=O)n(-c2ccccc2)n1C
TGI (HCT-116 colon): > 100 µM
TGI (CAKI-1 renal): > 100 µM
TGI (HOP-62 NSCLC): > 100 µM
TGI (U251 CNS): 96.3 µM
TGI (T-47D breast): > 100 µM
TGI (MDA-MB-435): 43.8 µM
TGI (SK-MEL-2 melanoma): 39.9 µM
TGI (UACC-62 melanoma): 47.1 µM
TGI (RPMI-8226 leukemia): 42.9 µM
TGI (TK-10 renal): 60.3 µM
TGI (PC-3 prostate): > 100 µM
TGI (M14 melanoma): > 100 µM
TGI (NCI-H23 lung): 78.2 µM
TGI (CCRF-CEM leukemia): > 100 µM
TGI (OVCAR-4 ovarian): > 100 µM
TGI (COLO 205 colon): 30.1 µM

O=c1cc(N=Nc2ccc(Br)cc2)[nH]c(=S)[nH]1
TGI (HCT-116 colon): 35.6 µM
TGI (CAKI-1 renal): 23 µM
TGI (HOP-62 NSCLC): > 100 µM
TGI (U251 CNS): > 100 µM
TGI (T-47D breast): 62.4 µM
TGI (MDA-MB-435): 38.1 µM
TGI (SK-MEL-2 melanoma): 33.3 µM
TGI (UACC-62 melanoma): > 100 µM
TGI (RPMI-8226 leukemia): 57.9 µM
TGI (TK-10 renal): 32.1 µM
TGI (PC-3 prostate): > 100 µM
TGI (M14 melanoma): 29.1 µM
TGI (NCI-H23 lung): > 100 µM
TGI (CCRF-CEM leukemia): 54.5 µM
TGI (OVCAR-4 ovarian): 34.3 µM
TGI (COLO 205 colon): 45.1 µM

O=C(c1ccccc1)c1c(CC(O)c2ccccn2)n(C(=O)c2ccccc2)c2ccccc12 (stereo unspecified)
TGI (HCT-116 colon): 27.8 µM
TGI (CAKI-1 renal): > 100 µM
TGI (HOP-62 NSCLC): 38.2 µM
TGI (U251 CNS): 58 µM
TGI (SK-MEL-2 melanoma): 30.9 µM
TGI (UACC-62 melanoma): 32.5 µM
TGI (RPMI-8226 leukemia): 56 µM
TGI (TK-10 renal): > 100 µM
TGI (M14 melanoma): 38.1 µM
TGI (NCI-H23 lung): 56.3 µM
TGI (CCRF-CEM leukemia): 80.5 µM
TGI (OVCAR-4 ovarian): > 100 µM
TGI (COLO 205 colon): 50.5 µM

O=C1NC(N2CCOCC2)=N/C1=C\c1ccc(Cl)cc1
TGI (HCT-116 colon): > 100 µM
TGI (CAKI-1 renal): > 100 µM
TGI (HOP-62 NSCLC): > 100 µM
TGI (U251 CNS): > 100 µM
TGI (T-47D breast): > 100 µM
TGI (MDA-MB-435): > 100 µM
TGI (SK-MEL-2 melanoma): > 100 µM
TGI (UACC-62 melanoma): > 100 µM
TGI (RPMI-8226 leukemia): > 100 µM
TGI (TK-10 renal): > 100 µM
TGI (PC-3 prostate): > 100 µM
TGI (M14 melanoma): > 100 µM
TGI (NCI-H23 lung): > 100 µM
TGI (CCRF-CEM leukemia): > 100 µM
TGI (OVCAR-4 ovarian): > 100 µM
TGI (COLO 205 colon): > 100 µM

CN(C)CCCc1cccc2[nH]c3c(c12)CN(C)CC3
TGI (HCT-116 colon): > 100 µM
TGI (CAKI-1 renal): > 100 µM
TGI (HOP-62 NSCLC): > 100 µM
TGI (U251 CNS): > 100 µM
TGI (T-47D breast): > 100 µM
TGI (MDA-MB-435): > 100 µM
TGI (SK-MEL-2 melanoma): > 100 µM
TGI (UACC-62 melanoma): > 100 µM
TGI (RPMI-8226 leukemia): > 100 µM
TGI (TK-10 renal): > 100 µM
TGI (PC-3 prostate): > 100 µM
TGI (M14 melanoma): 33.9 µM
TGI (NCI-H23 lung): > 100 µM
TGI (CCRF-CEM leukemia): > 100 µM
TGI (OVCAR-4 ovarian): > 100 µM
TGI (COLO 205 colon): > 100 µM

CCN(CC)c1cccc2c1/C(=N/O)CCCC2
TGI (HCT-116 colon): > 100 µM
TGI (HOP-62 NSCLC): > 100 µM
TGI (U251 CNS): > 100 µM
TGI (SK-MEL-2 melanoma): > 100 µM
TGI (UACC-62 melanoma): > 100 µM
TGI (RPMI-8226 leukemia): > 100 µM
TGI (TK-10 renal): > 100 µM
TGI (NCI-H23 lung): > 100 µM
TGI (CCRF-CEM leukemia): > 100 µM
TGI (OVCAR-4 ovarian): > 100 µM
TGI (COLO 205 colon): > 100 µM

N#CC(C(=O)c1cccnc1Cl)c1nc2cc(C(F)(F)F)ccc2s1 (stereo unspecified)
TGI (HCT-116 colon): 90.3 µM
TGI (CAKI-1 renal): > 100 µM
TGI (HOP-62 NSCLC): > 100 µM
TGI (U251 CNS): > 100 µM
TGI (T-47D breast): > 100 µM
TGI (MDA-MB-435): > 100 µM
TGI (RPMI-8226 leukemia): > 100 µM
TGI (TK-10 renal): > 100 µM
TGI (M14 melanoma): > 100 µM
TGI (NCI-H23 lung): > 100 µM
TGI (OVCAR-4 ovarian): > 100 µM
TGI (COLO 205 colon): > 100 µM
TGI (A498 renal): 87 µM

CCCNC(=S)/N=C/c1c(O)cc(C)oc1=O
TGI (HCT-116 colon): > 100 µM
TGI (CAKI-1 renal): > 100 µM
TGI (HOP-62 NSCLC): > 100 µM
TGI (U251 CNS): > 100 µM
TGI (T-47D breast): > 100 µM
TGI (MDA-MB-435): > 100 µM
TGI (SK-MEL-2 melanoma): > 100 µM
TGI (UACC-62 melanoma): > 100 µM
TGI (TK-10 renal): > 100 µM
TGI (PC-3 prostate): > 100 µM
TGI (M14 melanoma): > 100 µM
TGI (NCI-H23 lung): > 100 µM
TGI (OVCAR-4 ovarian): > 100 µM
TGI (COLO 205 colon): > 100 µM

O=C1C[C@H](c2ccccc2)O[C@@H](c2ccccc2)C1
TGI (HCT-116 colon): > 100 µM
TGI (CAKI-1 renal): > 100 µM
TGI (HOP-62 NSCLC): > 100 µM
TGI (U251 CNS): > 100 µM
TGI (T-47D breast): > 100 µM
TGI (MDA-MB-435): > 100 µM
TGI (SK-MEL-2 melanoma): > 100 µM
TGI (UACC-62 melanoma): > 100 µM
TGI (RPMI-8226 leukemia): > 100 µM
TGI (PC-3 prostate): > 100 µM
TGI (M14 melanoma): > 100 µM
TGI (NCI-H23 lung): > 100 µM
TGI (CCRF-CEM leukemia): > 100 µM
TGI (OVCAR-4 ovarian): > 100 µM
TGI (COLO 205 colon): > 100 µM

NC(Cc1ccc(OCc2ccccc2)cn1)C(=O)O (stereo unspecified)
TGI (HCT-116 colon): > 100 µM
TGI (CAKI-1 renal): > 100 µM
TGI (HOP-62 NSCLC): > 100 µM
TGI (U251 CNS): > 100 µM
TGI (MDA-MB-435): > 100 µM
TGI (RPMI-8226 leukemia): > 100 µM
TGI (TK-10 renal): > 100 µM
TGI (PC-3 prostate): > 100 µM
TGI (NCI-H23 lung): > 100 µM
TGI (CCRF-CEM leukemia): > 100 µM
TGI (COLO 205 colon): > 100 µM
TGI (A498 renal): > 100 µM

Nc1nc2c3nc(Nc4ccccc4)sc3nc(=S)n2c2sc(Nc3ccccc3)nc12
TGI (HCT-116 colon): > 100 µM
TGI (HOP-62 NSCLC): > 100 µM
TGI (U251 CNS): > 100 µM
TGI (UACC-62 melanoma): > 100 µM
TGI (M14 melanoma): > 100 µM
TGI (NCI-H23 lung): > 100 µM
TGI (OVCAR-4 ovarian): > 100 µM
TGI (COLO 205 colon): > 100 µM
TGI (A498 renal): > 100 µM

CC(ON(C(c1ccccc1)C(C)C)C(C)(C)C)c1ccccc1 (stereo unspecified)
TGI (HCT-116 colon): 33.9 µM
TGI (CAKI-1 renal): 55.7 µM
TGI (HOP-62 NSCLC): 38.9 µM
TGI (U251 CNS): 30.9 µM
TGI (T-47D breast): 81 µM
TGI (MDA-MB-435): 68.9 µM
TGI (SK-MEL-2 melanoma): 34.4 µM
TGI (UACC-62 melanoma): 32.2 µM
TGI (RPMI-8226 leukemia): 73.7 µM
TGI (TK-10 renal): 46.2 µM
TGI (PC-3 prostate): 94 µM
TGI (M14 melanoma): 49.2 µM
TGI (NCI-H23 lung): 63.9 µM
TGI (CCRF-CEM leukemia): 39.3 µM
TGI (OVCAR-4 ovarian): > 100 µM
TGI (COLO 205 colon): 32.5 µM
